From the NIST ThermoML archive (doi:10.1021/je7004374)
Numbers after ± are expanded uncertainties.

Settings: Liquid; for speed of sound: Sing-around technique in a fixed-path interferometer

OCCCO [propan-1,3-diol]
Settings	mass density [kg/m3]	speed of sound [m/s]
308.15 K, 10000 kPa	1047.8 ± 0.76	–
308.15 K, 15200 kPa	–	1646.6 ± 2.4
308.15 K, 20000 kPa	1051.94 ± 0.95	–
308.15 K, 30000 kPa	1055.93 ± 1.2	–
308.15 K, 30390 kPa	–	1688.4 ± 2.4
308.15 K, 40000 kPa	1059.79 ± 1.4	–
308.15 K, 45590 kPa	–	1728.4 ± 2.4
308.15 K, 50000 kPa	1063.54 ± 1.6	–
308.15 K, 60000 kPa	1067.17 ± 1.9	–
308.15 K, 60790 kPa	–	1766 ± 2.4
308.15 K, 70000 kPa	1070.71 ± 2.2	–
308.15 K, 75990 kPa	–	1802 ± 2.4
308.15 K, 80000 kPa	1074.14 ± 2.5	–
308.15 K, 90000 kPa	1077.49 ± 2.9	–
308.15 K, 91180 kPa	–	1836.6 ± 2.5
308.15 K, 100000 kPa	1080.76 ± 3.2	–
308.15 K, 101320 kPa	–	1858.8 ± 2.5
308.16 K, 101.33 kPa	1043.52 ± 0.6	–
313.12 K, 100 kPa	–	1590.5 ± 1.8
313.12 K, 91180 kPa	–	1827.4 ± 2.5
313.12 K, 101320 kPa	–	1849.7 ± 2.5
313.13 K, 30390 kPa	–	1678 ± 2.4
313.13 K, 45590 kPa	–	1718.2 ± 2.4
313.13 K, 60790 kPa	–	1756.4 ± 2.4
313.13 K, 75990 kPa	–	1792.6 ± 2.4
313.14 K, 15200 kPa	–	1635.8 ± 2.4
313.15 K, 100 kPa	1040.39 ± 0.59	–
313.15 K, 101.33 kPa	1040.36 ± 0.59	1590.5 ± 1.8
313.15 K, 10000 kPa	1044.7 ± 0.74	–
313.15 K, 20000 kPa	1048.89 ± 0.92	–
313.15 K, 30000 kPa	1052.94 ± 1.1	–
313.15 K, 40000 kPa	1056.85 ± 1.4	–
313.15 K, 50000 kPa	1060.65 ± 1.6	–
313.15 K, 60000 kPa	1064.33 ± 1.9	–
313.15 K, 70000 kPa	1067.9 ± 2.2	–
313.15 K, 80000 kPa	1071.38 ± 2.5	–
313.15 K, 90000 kPa	1074.77 ± 2.8	–
313.15 K, 100000 kPa	1078.07 ± 3.1	–
318.15 K, 100 kPa	1037.21 ± 0.58	–
318.15 K, 101.33 kPa	1037.19 ± 0.58	1579.2 ± 1.8
318.15 K, 10000 kPa	1041.57 ± 0.72	–
318.15 K, 20000 kPa	1045.83 ± 0.89	–
318.15 K, 30000 kPa	1049.93 ± 1.1	–
318.15 K, 40000 kPa	1053.9 ± 1.3	–
318.15 K, 50000 kPa	1057.74 ± 1.5	–
318.15 K, 60000 kPa	1061.47 ± 1.8	–
318.15 K, 70000 kPa	1065.09 ± 2.1	–
318.15 K, 80000 kPa	1068.61 ± 2.4	–
318.15 K, 90000 kPa	1072.03 ± 2.7	–
318.15 K, 100000 kPa	1075.37 ± 3	–
318.3 K, 100 kPa	–	1578.9 ± 1.8
318.31 K, 30390 kPa	–	1667.3 ± 2.4
318.31 K, 45590 kPa	–	1708 ± 2.4
318.31 K, 60790 kPa	–	1746.3 ± 2.4
318.31 K, 75990 kPa	–	1783.1 ± 2.4
318.31 K, 91180 kPa	–	1818 ± 2.5
318.31 K, 101320 kPa	–	1840.6 ± 2.5
318.32 K, 15200 kPa	–	1624.6 ± 2.4
323.15 K, 101.33 kPa	1034 ± 0.57	–
328.16 K, 101.33 kPa	1030.79 ± 0.56	–
333.15 K, 101.33 kPa	1027.56 ± 0.55	–
338.15 K, 101.33 kPa	1024.3 ± 0.54	–
343.15 K, 101.33 kPa	1021.01 ± 0.53	–
348.15 K, 101.33 kPa	1017.69 ± 0.52	–
353.15 K, 101.33 kPa	1014.34 ± 0.5	–
358.15 K, 101.33 kPa	1010.96 ± 0.49	–
363.15 K, 101.33 kPa	1007.54 ± 0.48	–
